In patent US10052385B2, “Formulations of bendamustine” (Eagle Pharmaceuticals, Inc., priority 2012, dated 2018):
Where a name gives a salt, the structure may show the parent alone. Read-outs that look alike come from different tables or passages of the source.

Experiment: Solubility of bendamustine HCl in 0.9% saline with non-aqueous solubilizer (Example 1)
Type: physicochemical
Conditions: for solubility at 30 min: 22.5 °C; for solubility at 30 min / solubility at 24 h: thermodynamic from solid; for solubility at 24 h: 5 °C
Protocol: Essentially, an excess of bendamustine HCl was added to solvents comprising of various volume percent of the non-aqueous solubilizer in 0.9% saline, and allowed to equilibrate with shaking for 30 minutes at room temperature, or for 24 hours at refrigerated temperature. At the end of the equilibration step, the suspensions were filtered through a 0.2 micron filter to remove undissolved bendamustine, and the filtrate solutions analyzed for bendamustine HCl content using a HPLC assay; quantification was performed against a bendamustine HCl reference standard.

Cn1c(CCCC(=O)O)nc2cc(N(CCCl)CCCl)ccc21 [bendamustine HCl]
solubility at 30 min (0.9% saline with 5 mg/ml monothioglycerol, saline or isotonic, Room temperature, API Source B, solvent also contained 5 mg/ml monothioglycerol, 100.0% Normal Saline, 0.0% Non-aqueous Solubilizer, read-out: Solubility of bendamustine HCl): ~3.3 mg/mL | solubility at 24 h (0.9% saline, saline or isotonic, 5° C., API Source A, 100.0% Normal Saline, 0.0% Non-aqueous Solubilizer (90:10 PEG 400/PG), read-out: Solubility of bendamustine HCl): 1.18 mg/mL | solubility at 30 min (0.9% saline, saline or isotonic, Room temperature, API Source A, 100.0% Normal Saline, 0.0% Non-aqueous Solubilizer (90:10 PEG 400/PG), read-out: Solubility of bendamustine HCl): 3.46 mg/mL | solubility at 24 h (aqueous with cosolvent or surfactant or cyclodextrin, 5° C., API Source A, 80.0% Normal Saline, 20.0% Non-aqueous Solubilizer (90:10 PEG 400/PG), read-out: Solubility of bendamustine HCl): 3.82 mg/mL | solubility at 24 h (aqueous with cosolvent or surfactant or cyclodextrin, 5° C., API Source A, 82.5% Normal Saline, 17.5% Non-aqueous Solubilizer (90:10 PEG 400/PG), read-out: Solubility of bendamustine HCl): 3.33 mg/mL | solubility at 24 h (aqueous with cosolvent or surfactant or cyclodextrin, 5° C., API Source A, 85.0% Normal Saline, […] Non-aqueous Solubilizer (90:10 PEG 400/PG), read-out: Solubility of bendamustine HCl): 2.9 mg/mL | solubility at 24 h (aqueous with cosolvent or surfactant or cyclodextrin, 5° C., API Source A, 90.0% Normal Saline, 10.0% Non-aqueous Solubilizer (90:10 PEG 400/PG), read-out: Solubility of bendamustine HCl): 2.43 mg/mL | solubility at 24 h (aqueous with cosolvent or surfactant or cyclodextrin, 5° C., API Source A, 95.0% Normal Saline, 5.0% Non-aqueous Solubilizer (90:10 PEG 400/PG), read-out: Solubility of bendamustine HCl): 2.02 mg/mL | solubility at 24 h (aqueous with cosolvent or surfactant or cyclodextrin, refrigerated, 19.4% of the non-aqueous component in the final 100 ml admixture, read-out: solubility of bendamustine HCl in final admixture): ~3.8 mg/mL | solubility at 30 min (aqueous with cosolvent or surfactant or cyclodextrin, Room temperature, API Source A, 70.0% Normal Saline, 30.0% Non-aqueous Solubilizer (90:10 PEG 400/PG), read-out: Solubility of bendamustine HCl): 12 mg/mL | solubility at 30 min (aqueous with cosolvent or surfactant or cyclodextrin, Room temperature, API Source A, 80.0% Normal Saline, 20.0% Non-aqueous Solubilizer (90:10 PEG 400/PG), read-out: Solubility of bendamustine HCl): 8.64 mg/mL | solubility at 30 min (aqueous with cosolvent or surfactant or cyclodextrin, Room temperature, API Source A, 85.0% Normal Saline, […] Non-aqueous Solubilizer (90:10 PEG 400/PG), read-out: Solubility of bendamustine HCl): 7.01 mg/mL | solubility at 30 min (aqueous with cosolvent or surfactant or cyclodextrin, Room temperature, API Source A, 90.0% Normal Saline, 10.0% Non-aqueous Solubilizer (90:10 PEG 400/PG), read-out: Solubility of bendamustine HCl): 5.63 mg/mL | solubility at 30 min (aqueous with cosolvent or surfactant or cyclodextrin, Room temperature, API Source A, 95.0% Normal Saline, 5.0% Non-aqueous Solubilizer (90:10 PEG 400/PG), read-out: Solubility of bendamustine HCl): 4.43 mg/mL | solubility at 30 min (aqueous with cosolvent or surfactant or cyclodextrin, room temperature, 16.1% of the non-aqueous component in the final 50 ml admixture, read-out: room temperature solubility of bendamustine HCl in final admixture): ~6.5 mg/mL | solubility at 30 min (saline or isotonic, Room temperature, API Source A, 97.5% Normal Saline, 2.5% Non-aqueous Solubilizer (90:10 PEG 400/PG), read-out: Solubility of bendamustine HCl): 3.99 mg/mL | solubility at 30 min (saline or isotonic, Room temperature, API Source B, solvent also contained 5 mg/ml monothioglycerol, 97.5% Normal Saline, 2.5% Non-aqueous Solubilizer, read-out: Solubility of bendamustine HCl): 3.89 mg/mL | Solubility of bendamustine HCl (Room temperature, API Source B, solvent also contained 5 mg/ml monothioglycerol, 70.0% Normal Saline, 30.0% Non-aqueous Solubilizer): 11.407 mg/mL | Solubility of bendamustine HCl (Room temperature, API Source B, solvent also contained 5 mg/ml monothioglycerol, 80.0% Normal Saline, 20.0% Non-aqueous Solubilizer, HCl): 8.492 mg/mL | Solubility of bendamustine HCl (Room temperature, API Source B, solvent also contained 5 mg/ml monothioglycerol, 82.5% Normal Saline, 17.5% Non-aqueous Solubilizer): 7.641 mg/mL | Solubility of bendamustine HCl (Room temperature, API Source B, solvent also contained 5 mg/ml monothioglycerol, 85.0% Normal Saline, […] Non-aqueous Solubilizer): 6.554 mg/mL | Solubility of bendamustine HCl (Room temperature, API Source B, solvent also contained 5 mg/ml monothioglycerol, 87.5% Normal Saline, 12.5% Non-aqueous Solubilizer): 5.825 mg/mL | Solubility of bendamustine HCl (Room temperature, API Source B, solvent also contained 5 mg/ml monothioglycerol, 90.0% Normal Saline, 10.0% Non-aqueous Solubilizer): 5.351 mg/mL | Solubility of bendamustine HCl (Room temperature, API Source B, solvent also contained 5 mg/ml monothioglycerol, 92.5% Normal Saline, 7.5% Non-aqueous Solubilizer): 4.742 mg/mL | Solubility of bendamustine HCl (Room temperature, API Source B, solvent also contained 5 mg/ml monothioglycerol, 95.0% Normal Saline, 5.0% Non-aqueous Solubilizer): 4.204 mg/mL
